Data from US4485113A (priority 1979, dated 1984).

Tests used:
[1] = in vivo; conditions: rat, po
[2] = tested on: rat; conditions: in vivo, po

Work on `CN(SC(C)(C)CCl)C(=O)ON=C1SC(C)(C)C(=O)N1C` [XIII, 3,5,5-Trimethyl-2-[[O--[N--methyl-N--(2-chloromethyl-2-propanesulfenyl)carbamoyl]oximino]]-4-thiazolidinone] yielded an LD50 [1] of 343 mg/kg.
`CN(SC(C)(C)C#N)C(=O)ON=C1CSCCS1` [XXVI, 2-[[O--[N--methyl-N--(2-cyano-2-propanesulfenyl)carbamoyl]oximino]]-1,4-dithiane] gave an LD50 [1] of 40 mg/kg.
With `CN(SSC(C)(C)C#N)C(=O)ON=CC(C)(C)C#N` [XXXII, 2-Cyano-2-methylpropionaldehyde O--[N--methyl-N--(2-cyano-2-propanethiosulfenyl)carbamoyl]oxime] the LD50 [1] was 14 mg/kg.
For `CNC(=O)ON=C(C)SC` [Compound 1], the “A.O. Rat. LD50” value [2] was 49 mg/kg.
For `CNC(=O)ON=C(C)SC(C)C` [Compound 3], the “A.O. Rat. LD50” value [2] was 8 mg/kg.
For `CC(=NOC(=O)N(C)SC(C)(C)C#N)SC(C)C` [XXIII, 1-Isopropylthioacetaldehyde O--[N--methyl-N--(2-cyano-2-propanesulfenyl)carbamoyl]oxime], the LD50 [1] was 20 mg/kg.
`CC(=NOC(=O)N(C)SSC(C)(C)C#N)SCCC#N` [XXVIII, 1-(2-Cyanoethylthio)acetaldehyde O--[N--methyl-N--(2-cyano-2-propanethiosulfenyl)carbamoyl]oxime] showed an LD50 [1] of 28 mg/kg.
In the case of `CC1OCSC1=NOC(=O)N(C)SSC(C)(C)C#N` (centres unmarked) [XXXIV, 5-Methyl-4-[[O--[N--methyl-N--(2-cyano-2-propanethiosulfenyl)carbamoyl]oximino]]-1,3-oxathiolane], the LD50 [1] was 14 mg/kg.
`CSC(C)=NOC(=O)N(C)SSC(C)(C)C#N` [XXVII] showed an LD50 [1] of 127 mg/kg.
`CC(=NOC(=O)N(C)SC(C)(C)C#N)SCCC#N` [XXIV, 1-(2-Cyanoethylthio)acetaldehyde O--[N--methyl-N--(2-cyano-2-propanesulfenyl)carbamoyl]oxime] gave an LD50 [1] of 14.1 mg/kg.
In the case of `CN(SSC(C)(C)C#N)C(=O)ON=C1CSCCS1` [XXXV, 2-[[O--[N--methyl-N--(2-cyano-2-propanethiosulfenyl)carbamoyl]oximino]]-1,4-dithiane], the LD50 [1] was 32 mg/kg.
For `CN(SC(C)(C#N)CCl)C(=O)ON=C1SC(C)(C)C(=O)N1C` (centres unmarked) [XIX, 3,5,5-Trimethyl-2-[[O--[N--methyl-N--(1-chloro-2-cyano-2-propanesulfenyl)carbamoyl]oximino]]-4-thiazolidinone], the LD50 [1] was 320 mg/kg.
`CC(=NOC(=O)N(C)SSC(C)(C)C#N)SC(C)C` [XXIX, 1-Isopropylthioacetaldehyde O--[N-- methyl-N--(2-cyano-2-propanethiosulfenyl)carbamoyl]oxime] showed an LD50 [1] of 18 mg/kg.
`CSC(C)=NOC(=O)N(C)SC(C)(C)C#N` [X, 1-Methylthioacetaldehyde O-[N-methyl-N-(2-cyano-2-propanesulfenyl)carbamoyl]oxime] showed an LD50 [1] of 127 mg/kg.
